Assay results as given in US4130559A, “Method for the preparation of 6-aminopenicillinic acid derivatives” (priority 1977, dated 1978).

Assay: Acid resistance (half-life period)
Type: physicochemical
Conditions: acid ph 1.3; Temperature 37° C, pH 1.3; Table 2, cyclopropyl series; read-out: τ1/2 half-life period (acid resistance)
Description: All compounds of this group were prepared in the form of sodium salts. Bactericidal activity, degree of hydrolysis with staphylococc penicillinase and acid resistance of the penicillins were determined.

**Q.** With CCCOc1ccc(C2(C(=O)N[C@@H]3C(=O)N4[C@@H]3SC(C)(C)[C@@H]4C(=O)O)CC2)cc1 [Compound XIV (Table 2)] as the compound, how does the half-life read?
**A.** Its half-life is 19.4 min.

**Q.** With CCCCOc1ccc(C2(C(=O)N[C@@H]3C(=O)N4[C@@H]3SC(C)(C)[C@@H]4C(=O)O)CC2)cc1 [Compound XVI (Table 2)] as the compound, how does the half-life read?
**A.** Its half-life is 6.1 min.

Same assay, conditions: acid ph 1.3; Temperature 37° C, pH 1.3; Table 3, cyclobutyl series; read-out: τ1/2 half-life period (acid resistance)

**Q.** With CC1(C)S[C@@H]2[C@H](NC(=O)C3(c4ccccc4)CCC3)C(=O)N2[C@H]1C(=O)O [Compound I (Table 3)] as the compound, how does the half-life read?
**A.** Its half-life is 86.6 min.

**Q.** Which half-life does the source give for COc1ccccc1C1(C(=O)N[C@@H]2C(=O)N3[C@@H]2SC(C)(C)[C@@H]3C(=O)O)CCC1 [Compound II (Table 3)] here?
**A.** Its half-life is 7.7 min.

**Q.** For CCOc1ccccc1C1(C(=O)N[C@@H]2C(=O)N3[C@@H]2SC(C)(C)[C@@H]3C(=O)O)CCC1 [Compound III (Table 3)], which half-life is on record?
**A.** Its half-life is 19.1 min.

**Q.** Which half-life does the source give for CCCOc1ccccc1C1(C(=O)N[C@@H]2C(=O)N3[C@@H]2SC(C)(C)[C@@H]3C(=O)O)CCC1 [Compound IV (Table 3)] here?
**A.** The half-life was 23 min.

**Q.** For CCCOc1cccc(C2(C(=O)N[C@@H]3C(=O)N4[C@@H]3SC(C)(C)[C@@H]4C(=O)O)CCC2)c1 [Compound IX (Table 3)], which half-life is on record?
**A.** Its half-life is 20.1 min.

**Q.** With CC(C)Oc1ccccc1C1(C(=O)N[C@@H]2C(=O)N3[C@@H]2SC(C)(C)[C@@H]3C(=O)O)CCC1 [Compound V (Table 3)] as the compound, how does the half-life read?
**A.** Its half-life is 18.6 min.

**Q.** Which half-life does the source give for CCCCOc1ccccc1C1(C(=O)N[C@@H]2C(=O)N3[C@@H]2SC(C)(C)[C@@H]3C(=O)O)CCC1 [Compound VI (Table 3)] here?
**A.** The half-life was 24.9 min.

**Q.** Which half-life does the source give for COc1cccc(C2(C(=O)N[C@@H]3C(=O)N4[C@@H]3SC(C)(C)[C@@H]4C(=O)O)CCC2)c1 [Compound VII (Table 3)] here?
**A.** Its half-life is 56.9 min.

**Q.** Which half-life does the source give for CCOc1cccc(C2(C(=O)N[C@@H]3C(=O)N4[C@@H]3SC(C)(C)[C@@H]4C(=O)O)CCC2)c1 [Compound VIII (Table 3)] here?
**A.** Its half-life is 23.8 min.

**Q.** With CC(C)Oc1cccc(C2(C(=O)N[C@@H]3C(=O)N4[C@@H]3SC(C)(C)[C@@H]4C(=O)O)CCC2)c1 [Compound X (Table 3)] as the compound, how does the half-life read?
**A.** The half-life was 17.2 min.

**Q.** For CCCCOc1cccc(C2(C(=O)N[C@@H]3C(=O)N4[C@@H]3SC(C)(C)[C@@H]4C(=O)O)CCC2)c1 [Compound XI (Table 3)], which half-life is on record?
**A.** The half-life was 46.6 min.

**Q.** Which half-life does the source give for COc1ccc(C2(C(=O)N[C@@H]3C(=O)N4[C@@H]3SC(C)(C)[C@@H]4C(=O)O)CCC2)cc1 [Compound XII (Table 3)] here?
**A.** Its half-life is 10.7 min.

**Q.** For CCOc1ccc(C2(C(=O)N[C@@H]3C(=O)N4[C@@H]3SC(C)(C)[C@@H]4C(=O)O)CCC2)cc1 [Compound XIII (Table 3)], which half-life is on record?
**A.** The half-life was 190 min.

**Q.** With CCCOc1ccc(C2(C(=O)N[C@@H]3C(=O)N4[C@@H]3SC(C)(C)[C@@H]4C(=O)O)CCC2)cc1 [Compound XIV (Table 3)] as the compound, how does the half-life read?
**A.** Its half-life is 27.3 min.

**Q.** With CC(C)Oc1ccc(C2(C(=O)N[C@@H]3C(=O)N4[C@@H]3SC(C)(C)[C@@H]4C(=O)O)CCC2)cc1 [Compound XV (Table 3)] as the compound, how does the half-life read?
**A.** Its half-life is 60.1 min.

**Q.** For CCCCOc1ccc(C2(C(=O)N[C@@H]3C(=O)N4[C@@H]3SC(C)(C)[C@@H]4C(=O)O)CCC2)cc1 [Compound XVI (Table 3)], which half-life is on record?
**A.** Its half-life is 25.6 min.

Assay: in vivo
Conditions: mouse, iv

**Q.** Which MTD does the source give for CC1(C)S[C@@H]2[C@H](NC(=O)C3(c4ccccc4)CCC3)C(=O)N2[C@H]1C(=O)O [Compound I (Table 3)] here?
**A.** Its MTD is 1000 mg/kg.

**Q.** For COc1ccccc1C1(C(=O)N[C@@H]2C(=O)N3[C@@H]2SC(C)(C)[C@@H]3C(=O)O)CCC1 [Compound II (Table 3)], which MTD is on record?
**A.** The MTD was 500 mg/kg.

**Q.** With CCOc1ccccc1C1(C(=O)N[C@@H]2C(=O)N3[C@@H]2SC(C)(C)[C@@H]3C(=O)O)CCC1 [Compound III (Table 3)] as the compound, how does the MTD read?
**A.** The MTD was 250 mg/kg.

**Q.** With CCCOc1ccccc1C1(C(=O)N[C@@H]2C(=O)N3[C@@H]2SC(C)(C)[C@@H]3C(=O)O)CCC1 [Compound IV (Table 3)] as the compound, how does the MTD read?
**A.** Its MTD is 500 mg/kg.

**Q.** With CCCOc1cccc(C2(C(=O)N[C@@H]3C(=O)N4[C@@H]3SC(C)(C)[C@@H]4C(=O)O)CCC2)c1 [Compound IX (Table 3)] as the compound, how does the MTD read?
**A.** Its MTD is 250 mg/kg.

**Q.** Which MTD does the source give for CC(C)Oc1ccccc1C1(C(=O)N[C@@H]2C(=O)N3[C@@H]2SC(C)(C)[C@@H]3C(=O)O)CCC1 [Compound V (Table 3)] here?
**A.** Its MTD is 250 mg/kg.

**Q.** For CCCCOc1ccccc1C1(C(=O)N[C@@H]2C(=O)N3[C@@H]2SC(C)(C)[C@@H]3C(=O)O)CCC1 [Compound VI (Table 3)], which MTD is on record?
**A.** The MTD was 1000 mg/kg.

**Q.** With COc1cccc(C2(C(=O)N[C@@H]3C(=O)N4[C@@H]3SC(C)(C)[C@@H]4C(=O)O)CCC2)c1 [Compound VII (Table 3)] as the compound, how does the MTD read?
**A.** Its MTD is 1500 mg/kg.

**Q.** With CCOc1cccc(C2(C(=O)N[C@@H]3C(=O)N4[C@@H]3SC(C)(C)[C@@H]4C(=O)O)CCC2)c1 [Compound VIII (Table 3)] as the compound, how does the MTD read?
**A.** Its MTD is 1500 mg/kg.

**Q.** For CC(C)Oc1cccc(C2(C(=O)N[C@@H]3C(=O)N4[C@@H]3SC(C)(C)[C@@H]4C(=O)O)CCC2)c1 [Compound X (Table 3)], which MTD is on record?
**A.** The MTD was 500 mg/kg.

**Q.** For CCCCOc1cccc(C2(C(=O)N[C@@H]3C(=O)N4[C@@H]3SC(C)(C)[C@@H]4C(=O)O)CCC2)c1 [Compound XI (Table 3)], which MTD is on record?
**A.** Its MTD is 1000 mg/kg.

**Q.** Which MTD does the source give for COc1ccc(C2(C(=O)N[C@@H]3C(=O)N4[C@@H]3SC(C)(C)[C@@H]4C(=O)O)CCC2)cc1 [Compound XII (Table 3)] here?
**A.** The MTD was 1500 mg/kg.

**Q.** With CCOc1ccc(C2(C(=O)N[C@@H]3C(=O)N4[C@@H]3SC(C)(C)[C@@H]4C(=O)O)CCC2)cc1 [Compound XIII (Table 3)] as the compound, how does the MTD read?
**A.** The MTD was 1000 mg/kg.

**Q.** With CCCOc1ccc(C2(C(=O)N[C@@H]3C(=O)N4[C@@H]3SC(C)(C)[C@@H]4C(=O)O)CC2)cc1 [Compound XIV (Table 2)] as the compound, how does the MTD read?
**A.** The MTD was 1000 mg/kg.

**Q.** For CCCOc1ccc(C2(C(=O)N[C@@H]3C(=O)N4[C@@H]3SC(C)(C)[C@@H]4C(=O)O)CCC2)cc1 [Compound XIV (Table 3)], which MTD is on record?
**A.** The MTD was 250 mg/kg.

**Q.** Which MTD does the source give for CC(C)Oc1ccc(C2(C(=O)N[C@@H]3C(=O)N4[C@@H]3SC(C)(C)[C@@H]4C(=O)O)CCC2)cc1 [Compound XV (Table 3)] here?
**A.** The MTD was 500 mg/kg.

**Q.** Which MTD does the source give for CCCCOc1ccc(C2(C(=O)N[C@@H]3C(=O)N4[C@@H]3SC(C)(C)[C@@H]4C(=O)O)CC2)cc1 [Compound XVI (Table 2)] here?
**A.** The MTD was 250 mg/kg.

**Q.** With CCCCOc1ccc(C2(C(=O)N[C@@H]3C(=O)N4[C@@H]3SC(C)(C)[C@@H]4C(=O)O)CCC2)cc1 [Compound XVI (Table 3)] as the compound, how does the MTD read?
**A.** The MTD was 500 mg/kg.
